# Laboratory results: patent US20250236616A1, “IMMUNOMODULATING AZALIDES” (Zoetis Services LLC, priority 2021, published 2025)
# How the values were obtained:
# H. somni = assay: MIC, H. somni strains; assay type: cell-based; conditions: for MIC values, range: H. somni strains
# Description: (§1) Primary screening of the compounds of the invention included the evaluation of antibacterial activity of analogs through determination of microbial inhibition concentration (MIC) as per CLSI guidelines. The screening panel included the relevant BRD pathogens: 1) M. haemolytica (e.g., 12726, 46571 and 49023, all AHDRCC; and 33396 (ATCC)); and 2) P. multocida (e.g., 34135 and 46572 (both AHDRCC) and 43137 (ATCC)). In some instances, H. somni (A700025K) pathogens were also included in the screening panel. The AHDRCC strains originated from the Zoetis BRD/SRD surveillance program and refer to the Animal Health Development and Research Culture Collection. In addition, the screen assessed S. aureus (29213 ATCC) as a representative Gram-positive isolate, E.faecalis (19433 ATCC) as a commensal gram-positive gastrointestinal bacterium and E. coli (100, 3110 and 25922 (ATCC)) for the evaluation of efflux potential. The screening panel BRD pathogens were assessed in determining antibacterial activity of the Formula (1) compounds.
# (§2) All relevant BRD pathogens were initially screened at a top concentration of 64 μg/mL of a Formula (1) compound in an eleven-point dilution series. […] If an Example was purified further, the MICs moved […] essentially two dilutions across all strains tested in the screening panel.
# (§3) In-Vitro MIC Model Compounds were analyzed for antibacterial activity against a panel of animal health specific gram-positive and gram-negative clinical strains by diluting compounds in DMSO to an appropriate stock concentration to determine the Minimal Inhibitory Concentration (MIC) via a semi-automated broth micro-dilution method (CLSI reference method) with QC strains and anti-microbial agent(s). Specifically, bacteria were grown overnight on TSA w/5% sheep blood agar plates and diluted in saline buffer to a McFarland Standard 0.5, then further diluted in cation-ion adjusted Mueller Hinton Broth to a final concentration of approximately 5×10^5 CFU/mL. 100 μL of inoculated media was added to 96-well plate(s) with 3 μL of serially diluted compound in each row. Depending on strain (see CLSI reference method), bacteria were incubated 18-22 hours at 35-37° C. in ambient air, with 5% CO2 or anaerobically (up to 48 hours).
# P. multocida [1] = assay: Murine P. multocida intranasal challenge study, treatment 18 hours after challenge, survival; assay type: in vivo, mice; conditions: subcutaneous 18 hours after challenge (5×10^3 CFU/mouse); tulathromycin 16 mg/kg, M9 32 mg/kg, ceftiofur 9 mg/kg
# Protocol: In one murine P. multocida intranasal challenge study, mice were administered tulathromycin (16 mg/kg; T02), M9 (32 mg/kg; T03), or ceftiofur (9 mg/kg; T04) by subcutaneous injection 18 hours after bacterial challenge (5×10^3 CFU/mouse) for lung tissue RNA sequence analysis. Survival at Day 7 was about 80%, 50%, and 90% for T02, T03, and T04, respectively, compared to placebo at 0%. Differential gene expression from total lung tissue RNA sequence analysis indicated at least 226 unique genes were up or down regulated (with significance) for T03. Output from ingenuity pathway analysis of these unique genes predicted major upstream regulators of the involved pathways. Data was analyzed based on the number of genes being modulated in the same direction that were associated with a given upstream regulator. An activation z-score of 2 or greater is considered significant and the direction change is indicated by + (activated) or -(inhibited). The top 5 pathways included: IL-9 signaling, glucocorticoid receptor signaling, prolactin signaling, JAK STAT signaling, and IL-17 signaling. The top 6 upstream regulators (activation z-score) included: lipopolysaccharide (−6.725), TNF (−4.669), IFNγ (−5.759), IL-1β (−5.947), STAT1 (−2.787), and poly rl: rC-RNA (−5.289). Even though this study was run in the murine model, the top upstream regulators identified as being modulated by M9 include an almost ubiquitous overlap with the pathways identified in the natural disease study as being key mediators in BRD, and therefore is modulating highly relevant pathways in BRD pathobiology.
# [2] = test system: M. haemolytica (strain: OSU-012103-BHI); assay: Bovine M. haemolytica intratracheal lung challenge model, mortality; assay type: in vivo; conditions: M. haemolytica challenge Day 0; subcutaneous Day -1; M9 10 mg/kg, Draxxin 2.5 mg/kg; 6 animals
# Protocol: To evaluate immunomodulation effects and potential biomarkers, a bovine M. haemolytica (strain: OSU-012103-BHI) intratracheal lung challenge model study was completed utilizing M9 treatment in the presence and absence of bacterial challenge and a Draxxin® comparator. […] Animals were administered 0.05 mL/kg saline (T01), 10 mg/kg M9 (T02); Draxxin 2.5 mg/kg (T03) and 10 mg/kg M9 (T04) by subcutaneous injection on Day-1. Dose was based on body weight. Animals were challenge on Day 0 with the exception of T04. Blood was collected longitudinally throughout the study for biomarker evaluation panel (e.g., IL-6 and CD163) including two baseline samples prior to treatment. FIG. 4A depicts the area under the curve concentrations for IL-6 protein for individual animals against percent lung lesion scores and FIG. 4B depicts the CD163 fold change area under the curve for individual animals against percent lung lesion scores. Data is represented as percent lung lesion scores against the area under the curve (AUC) for IL-6 protein (immunoassay expressed in pg/mL) and CD163 (flow cytometric mean fluorescent intensity (MFI) in fold change from baseline). In both assays, a 2-fold change is typically considered to be relevant.
# E. coli = assay: MIC, E. coli; assay type: cell-based; conditions: Escherichia coli
# Description: as §1, §2, §3
# IL-6 = IL-6 biomarker in bovine M. haemolytica challenge; assay type: in vivo
# Protocol: Cytokine Detection—An MSD U-Plex cytokine assay was developed following the MSD U-Plex protocol guide and included biotinylated capture antibodies against: bovine Interleukin (IL)-1β (Biorad), bovine IL-6 (R&D Systems) and bovine tumor necrosis factor (TNF)-α (R&D Systems). The anti-IL-1β antibody was biotinylated using EZ-Link Sulfo-NHS-Biotin (Thermo Scientific) at a challenge ratio of 1:20 according to manufacturer instructions. Assay calibrators (Kingfisher) were diluted to a concentration of […] in control lithium heparin plasma, followed by 4-fold serial dilutions into plasma. The detection antibodies were sulfo-tagged following the MSD quick guide conjugation protocol using a challenge ratio of 1:20. Antibodies were used at the following concentrations: anti-IL-1β at 1 μg/mL, anti-IL-6 at 1 μg/mL and anti-TNF-α at 0.5 μg/mL. Cytokines were quantified according to manufacturer's instructions using a chemiluminescent readout. In brief, 0.5 mL of all biotinylated antibodies were diluted to 10 μg/mL with Diluent 100 and paired to their respective linkers by adding 750 μL of supplied Linker solution and incubated for 30 minutes followed by addition of Stop solution for another 30 minutes. […] Plates were washed a further three times before addition of 150 μL 2X Read buffer and read immediately on the SI6000 instrument (MSD). […]
# P. multocida [3] = assay: MIC, P. multocida strains; assay type: cell-based
# Description: as §1, §2, §3
# M. haemolytica = assay: MIC, M. haemolytica strains; assay type: cell-based
# Description: as §1, §2, §3
# [4] = test system: natural bovine respiratory disease (BRD); assay: Natural bovine respiratory disease study, treatment failure; assay type: in vivo, beef calves; conditions: Zactran group T04 (dose not given), 14-day observation
# [5] = lung isolates at necropsy, natural BRD study, n=33
# [6] = lung isolates at necropsy, natural BRD study, n=25
# [7] = lung isolates at necropsy, natural BRD study, n=116
smiles,measurement,setting,value
CS(=O)(=O)c1ccc([C@@H](O)[C@@H](CF)NC(=O)C(Cl)Cl)cc1 [florfenicol],"MIC values, range",H. somni,0.12 to 2 µg/mL
"CCCNC[C@]1(O)[C@H](C)O[C@@H](O[C@H]2[C@H](C)[C@@H](O[C@@H]3O[C@H](C)C[C@H](N(C)C)[C@H]3O)[C@](C)(O)C[C@@H](C)CN[C@H](C)[C@@H](O)[C@](C)(O)[C@@H](CC)OC(=O)[C@@H]2C)C[C@@]1(C)OC [tulathromycin, (2R,3S,4R,5R,8R,10R,11R,12S,13S,14R)-11-(((2S,3R,4S,6R)-4-(dimethylamino)-3-hydroxy-6-methyltetrahydro-2H-pyran-2-yl)oxy)-2-ethyl-3,4,10-trihydroxy-13-(((2R,4R,5S,6S)-5-hydroxy-4-methoxy-4,6-dimethyl-5-((propylamino)methyl)tetrahydro-2H-pyran-2-yl)oxy)-3,5,8, 10, 12, 14-hexamethyl-1-oxa-6-azacyclopentadecan-15-one]",Survival at Day 7,P. multocida [1],about 80%
same,Mortality,[2],0/6
same,MIC,E. coli; E. coli 25922,2 µg/mL
same,MIC,E. coli; E. coli W3110,8 µg/mL
same,IL-6 levels,IL-6,significantly reduced IL-6 levels
"CCCN1C[C@H](C)[C@@H](O)[C@](C)(O)[C@@H](CC)OC(=O)[C@H](C)[C@@H](O[C@H]2C[C@@](C)(OC)[C@@H](O)[C@H](C)O2)[C@H](C)[C@@H](O[C@@H]2O[C@H](C)C[C@H](N(C)C)[C@H]2O)[C@](C)(O)C[C@H]1C [gamithromycin, reference compound]",MIC50,P. multocida [3]; [5],1 µg/mL
same,MIC90,P. multocida [3]; [5],>64 µg/mL
same,"MIC values, range",P. multocida [3]; the same P. multocida strains of the panel,1 to 2 µg/mL
same,"MIC values, range",H. somni,0.25 to 8 µg/mL
same,MIC50,H. somni; [6],0.25 µg/mL
same,MIC90,H. somni; [6],2 µg/mL
same,MIC Range,H. somni; [6],0.12 to 2 µg/mL
same,MIC50,M. haemolytica; [7],1 µg/mL
same,MIC90,M. haemolytica; [7],>64 µg/mL
same,"MIC values, range",M. haemolytica; the same M. haemolytica strains of the panel,0.5 to 1 µg/mL
same,Percent failure,[4],29.8%
CO/N=C(\C(=O)N[C@@H]1C(=O)N2C(C(=O)O)=C(CSC(=O)c3ccco3)CS[C@H]12)c1csc(N)n1 [ceftiofur],Survival at Day 7,P. multocida [1],~90%
CCN1CCN(c2cc3c(cc2F)c(=O)c(C(=O)O)cn3C2CC2)CC1 [enrofloxacin],"MIC values, range",H. somni,<0.06 to 1 µg/mL
